Source: patent US6174909A, “4-aminotetrahydrobenzisoxazole or -isothiazole compounds” (H. Lundbeck A/S, priority 1995, dated 2001)
Counter-ions that a name gives are not always drawn.

Key:
[1] = system: GABA uptake in synaptosomes; assay: GABA uptake inhibition in synaptosomes (overall, i.e. neuronal and glial); type: biochemical; details: values marked * = Preliminary Data
Method: The inhibition of GABA Uptake was performed by the method described by Falch et. al, Drug Dev. Res., 1990,21, 169-188. By this method the overall, i.e. neuronal and glial, inhibition of GABA uptake is determined.

[2] = system: isoniazide induced convulsions in mice; assay: Isoniazid antagonism (antagonism of isoniazide induced convulsions in mice); type: in vivo, mice (male NMRI/BOM); details: Mus musculus, sc, 30 min before 300 mg isoniazide s.c., protected = no convulsions within 60 min, log probit analysis
Method: The test is a test for antagonism of isoniazide induced convulsions in mice.
The test substance is given s.c. to mice (male NMRI/BOM, body weight 20-25 g) and 30 min later 300 mg isoniazide is given s.c. Five mice are used per dose and a control group only receiving isoniazide is included. This dose of isoniazide induces intermittent tonic seizures.
The animals are placed individually in Macrolon type II cages and the time when convulsions first occur is recorded. The experiment is stopped after 90 min. The animals that have not had convulsions within 60 min. are recorded as + (protected). The results, i.e. the number of protected mice pr number of tested mice are stated in fractions as follows: 0/5, 1/5 . . . , 5/5.

Row | SMILES | IC50 [1] | ED50 [2] | IC50 ([1]; hydrobromide)
1 | CNC1CCCc2onc(OCOC(=O)c3c(C)cc(C)cc3C)c21 (racemic) [Compound 31b, (R,S)-4-Methylamino-3-(2,4,6-trimethylbenzoyloxymethyloxy)-4,5,6,7-tetrahydro-1,2-benzisoxazole, hemioxalate] | 300 µM | 55 µmol/kg | 
2 | CN(CCOC(c1ccccc1)c1ccccc1)C1CCCc2onc(O)c21 (racemic) [Compound 16c, (R,S)-4-[N-(diphenylmethyl-2-oxyethyl)-N-methylamino]-3-hydroxy-4,5,6,7-tetrahydro-1,2-benzisoxazole, hydrochloride] | 0.36 µM | 160 µmol/kg | 
3 | CNC(=O)n1oc2c(c1=O)C(NC)CCC2 (racemic) [Compound 15b] | 80 µM | 72 µmol/kg | 
4 | CNC1CCCc2on(C(=O)NCc3ccccc3)c(=O)c21 (racemic) [Compound 15c] | 84 µM | > 120 µmol/kg | 
5 | Oc1noc2c1C(NCCCC(c1ccccc1)c1ccccc1)CCC2 (racemic) [Compound 8g, (R,S)-4-(4,4-diphenylbutan-1-ylamino]-3-hydroxy-4,5,6,7-tetrahydro-1,2-benzisoxazole, hydrobromide] | 0.17 µM | 56 µmol/kg | 
6 | CNC1CCCc2on(C(=O)Nc3ccccc3)c(=O)c21 (racemic) [Compound 15a, (R,S)-4-methylamino-2-phenylaminocarbonyl4,5,6,7-tetrahydro-1,2benzisoxazol-3-one, hydrochloride] | 70 µM | > 120 µmol/kg | 
7 | Oc1noc2c1C(NCCC(c1ccccc1)c1ccccc1)CCC2 (racemic) [Compound 8i, (R,S)-4-(3,3-diphenylpropan-1-ylamind]-3-hydroxy-4,5,6,7-tetrahydro-1,2-benzisoxazole, hydrobromide] | 0.14 µM | 310 µmol/kg | 
8 | CC(=O)OCCNC1CCCc2onc(O)c21 (racemic) [Compound 8c, (R,S)-4-(2-Acetyloxyethylamino)-3-hydroxy-4,5,6,7-tetrahydro-1,2-benzisoxazole, hydrobromide] | 120 µM | > 120 µmol/kg | 
9 | CCNC1CCCc2onc(O)c21 (racemic) [Compound 8e, (R,S)-4-Ethylamino-3-hydroxy-4,5,6,7-tetrahydro-1,2-benzisoxazole, hydrobromide] | 100 µM | > 300 µmol/kg | 
10 | CNC1CCCc2onc(O)c21 (single isomer, unassigned; (+)) [Compound 6c, (+)-3-hydroxy-4-methylamino-4,5,6,7-tetrahydro-1,2-benzisoxazole, hydrobromide] |  | > 320 µmol/kg | 42 µM
